Where two headings read alike, the source gives them in different places.
How the values were obtained:
[1] = target: histone deacetylase (HeLa nuclear extracts); test: In vitro assay for inhibition of histone deacetylase (HDAC Fluorescent Activity Assay, Fluor de Lys); type: biochemical; conditions: Fluor de Lys substrate
Excerpt: The in vitro assay for inhibition of histone deacetylase (see example C.1) measures the inhibition of HDAC enzymatic activity obtained with the compounds of formula (I).
The HDAC Fluorescent Activity Assay/Drug Discovery Kit of Biomol (cat.No: AK-500-0001) was used. The HDAC Fluorescent Activity Assay is based on the Fluor de Lys (Fluorogenic […] deAcetylase Lysyl) substrate and developer combination. The Fluor de Lys substrate, comprises an acetylated lysine side chain. Deacetylation of the substrate sensitizes the substrate so that, in the second step, treatment with the Fluor de Lys developer produces a fluorophore.
After 30 min, 1 volume of the developer was added. […] For each experiment, controls (containing HeLa nuclear extract and buffer), a blank incubation (containing buffer but no HeLa nuclear extract) and samples (containing compound dissolved in DMSO and further diluted in buffer and HeLa nuclear extract) were run in parallel. […] All sample were tested 4 times. In each test the blank value was substracted from both the control and the sample values. The control sample represented 100% of substrate deactylation. For each sample the fluorescence was expressed as a percentage of the mean value of the controls. […] Herein the effects of test compounds are expressed as pIC50 (the negative log value of the IC50-value) (see Table F-3).

[2] = system: A2780 ovarian carcinoma cells; test: Antiproliferative activity on A2780 cells (MTT); type: cell-based, human; conditions: Homo sapiens, A2780, 96 h, four days of incubation, read-out: Cellular activity pIC50 C.2. (converted)
Protocol: Cellular activity of the compounds of formula (I) was determined on A2780 tumour cells using a […] assay for cell toxicity or survival (Mosmann Tim, Journal of Immunological Methods 65: 55-63, 1983)(see example C.2).
All compounds tested were dissolved in DMSO and further dilutions were made in culture medium. Final DMSO concentrations never exceeded 0.1% (v/v) in cell proliferation assays. Controls contained A2780 cells and DMSO without compound and blanks contained DMSO but no cells. MTT was dissolved at 5 mg/ml in PBS. A glycine buffer comprised of 0.1 M glycine and 0.1 M NaCl buffered to pH 10.5 with NaOH (1 N) was prepared (all reagents were from Merck).
The human A2780 ovarian carcinoma cells (a kind gift from Dr. T. C. Hamilton [Fox Chase Cancer Centre, Pennsylvania, USA]) were cultured in RPMI 1640 medium supplemented with 2 mM L-glutamine, 50 μg/ml gentamicin and 10% fetal calf serum.
Cells were routinely kept as monolayer cultures at 37° C. in a humidified 5% CO2 atmosphere. Cells were passaged once a week using a trypsin/EDTA solution at a split ratio of 1:40. All media and supplements were obtained from Life Technologies. Cells were free of mycoplasma contamination as determined using the Gen-Probe Mycoplasma Tissue Culture kit (supplier: BioMérieux).
Cells were seeded in NUNC™ 96-well culture plates (Supplier: Life Technologies) and allowed to adhere to the plastic overnight. Densities used for plating were 1500 cells per well in a total volume of 200 μl medium. After cell adhesion to the plates, medium was changed and drugs and/or solvents were added to a final volume of 200 μl. Following four days of incubation, medium was replaced by 200 μl fresh medium and cell density and viability was assessed using an MTT-based assay. To each well, 25 μl […] solution was added and the cells were further incubated for 2 hours at 37° C. The medium was then carefully aspirated and the blue MTT-formazan product was solubilized by addition of 25 μl glycine buffer followed by 100 μl of DMSO. […] Within an experiment, the results for each experimental condition are the mean of 3 replicate wells. For initial screening purposes, compounds were tested at a single fixed concentration of 10^−6 M. For active compounds, the experiments were repeated to establish full concentration-response curves. For each experiment, controls (containing no drug) and a blank incubation (containing no cells or drugs) were run in parallel. The blank value was subtracted from all control and sample values. For each sample, the mean value for cell growth (in absorbance units) was expressed as a percentage of the mean value for cell growth of the control. […] Herein the effects of test compounds are expressed as pIC50 (the negative log value of the IC50-value)(see Table F-3).

[3] = Kinetic solubility in aqueous media (nephelometer, C.3.a); type: physicochemical; conditions: aqueous buffer, kinetic from dmso stock; score; phosphate citrate buffer pH 7.4, turbidity
Protocol: The solubility of a compound measures the ability of a compound to stay in solution. In a first method the ability of a compound to stay in aqueous solution upon dilution (see example C.3.a) is measured. DMSO-stock solutions are diluted with a single aqueous buffer solvent in 3 consecutive steps. For every dilution turbidity is measured with a nephelometer.
In the first dilution step, 10 μl of a concentrated stock-solution of the active compound, solubilized in DMSO (5 mM), was added to 100 μl phosphate citrate buffer pH 7.4 and mixed. In the second dilution step, an aliquot (20 μl) of the first dilution step was further dispensed in 100 μl phosphate citrate buffer pH 7.4 and mixed. Finally, in the third dilution step, a sample (20 μl) of the second dilution step was further diluted in 100 μl phosphate citrate buffer pH 7.4 and mixed. All dilutions were performed in 96-well plates. Immediately after the last dilution step the turbidity of the three consecutive dilution steps were measured with a nephelometer. Dilution was done in triplicate for each compound to exclude occasional errors. Based on the turbidity measurements a ranking is performed into 3 classes. Compounds with high solubility obtained a score of 3 and for this compounds the first dilution is clear. Compounds with medium solubility obtained a score of 2. For these compounds the first dilution is unclear and the second dilution is clear.

[4] = system: p21 promoter reporter A2780 tumour in nude mice; test: p21 promoter induction in vivo method, tumour fluorescence (C.6.c); conditions: oral administration, daily during 6 days, 20-40 mpk
Protocol: Another method tests the capacity of compounds to induce p21 as the consequence of HDAC inhibition at the cellular level. […] The reporter gene is a fluorescent protein and the expression of the reporter gene is measured as the amount of fluorescent light emitted (see example C.6.b.). The last method is an in vivo method wherein mice are used for screening the pharmaceutical activity of a compound. The above described stably transformed tumour cells can be administered to mice in an amount sufficient to effect production of a tumour. After the tumour cells had sufficient time to form a tumour, a potentially active compound can be administered to the animals and the effect of said compound on the tumour cells is evaluated by measuring the expression of the reporter gene. Incubation with pharmaceutical active compounds will result in an increase of reporter gene expression compared to the control levels (see example C.6.c.)
A selected clone was injected subcutaneous (10^7 cells/200 μl) into the flank of nude mice and a calliper measurable tumour was obtained after 12 days. […] Tumours were evaluated for fluorescence by the in-house developed Automated Whole Body Imaging System (Fluorescent stereomicroscope type Olympus® SZX12 equipped with a GFP filter and coupled to a CCD camera type JAI® CV-M90 controlled by a software package based on the IMAQ Vision Software from National Instruments®). […]

[5] = not given; remark: listed apart in the source
[6] = Metabolic stability with rat hepatocytes cell culture (C.5.b); type: in vitro ADME; conditions: 5 μM
Excerpt: Metabolism of drugs means that a lipid-soluble xenobiotic or endobiotic compound is enzymatically transformed into (a) polar, water-soluble, and excretable metabolite(s). The major organ for drug metabolism is the liver. […] However, some metabolites may have enhanced activity or toxic effects. Thus drug metabolism may include both “detoxication” and “toxication” processes. One of the major enzyme systems that determine the organism's capability of dealing with drugs and chemicals is represented by the cytochrome P450 monooxygenases, which are NADPH dependent enzymes. Metabolic stability of compounds can be determined in vitro with the use of subcellular human tissue (see example C.5.a.). Here metabolic stability of the compounds is expressed as % of drug metabolised after 15 minutes incubation of these compounds with microsomes. Quantitation of the compounds was determined by LC-MS analysis. Metabolic stability of compounds can also be determined by calculating the half live of compounds in rat hepatocyte cells (see example C.5.b.). […]
Samples were prepared for LC-MS by addition of two volumes of DMSO. […] Of the resulting supernatant 50 μl was analysed by LC-MS. […]
Total injection volume of samples was 50 μL. […] The mass spectrometer was operated in positive ion mode in SIM adjusted to the mass of M+H with a scan width of 1 Da for quantification purposes. […]

Compound | Enzymatic activity pIC50 C.1. [1] | IC50 [2] [nM] | solubility [3] [µM] | in vitro half-live [6] [min] | also measured
COc1cc(N)c(Cl)cc1C(=O)NC1CCN(CCCOc2ccc(F)cc2)CC1OC (stereo not drawn) [Cisapride] | – | – | – | – | % metabolism (human, 15 min, 5 μM): 45%
O=C(NO)c1cnc(N2CCN(C(/C=C/c3ccccc3)CO)CC2)nc1 (stereo not drawn) [Compound 1] | 8.2 | 12.6 | > 455 | – | tumour fluorescence ranked relative to R306465 [4]: better than R306465; melting point [5]: 187 °C
O=C(NO)c1cnc(N2CCN(C(/C=C/c3ccc(Cl)cc3)CO)CC2)nc1 (stereo not drawn) [Compound 4] | 8.2 | 31.6 | > 455 | 23 | –
O=C(NO)c1cnc(N2CCN(S(=O)(=O)c3ccc4ccccc4c3)CC2)nc1 [Compound R306465, reference compound] | – | – | – | 8 | –
CCCO [propanol] | – | – | – | – | % metabolism (after 15 min incubation with active microsomes, compound 5 μM): 25%
